The NIST ThermoML archive (doi:10.1021/je501126j)

Columns and labels:
[1] = 101 kPa, Liquid, Vibrating tube method
[2] = wn = mass fraction of the nth substance listed; conditions: 101 kPa, Liquid, Vibrating tube method

CC(O)CN(C)C (stereo not drawn) [1-(dimethylamino)-2-propanol]
[1]
Conditions	mass density [kg/m3]
298.15 K	845.2
303.15 K	840.4
308.15 K	835.6
313.15 K	830.7
318.15 K	825.9
323.15 K	820.9

CC(O)CN(C)C (stereo not drawn) [1-(dimethylamino)-2-propanol] + O
mass density [kg/m3], [2]
Conditions	298.15 K	303.15 K	308.15 K	313.15 K	318.15 K	323.15 K
w1 = 0.1	992.5	990.8	988.9	986.7	984.2	982.1
w1 = 0.2	989.5	987.2	984.6	981.9	979	976
w1 = 0.3	984.6	981.4	978	974.5	970.9	967.2
w1 = 0.4	976.7	972.8	968.7	964.6	960.5	956.3
w1 = 0.5	967.2	962.9	958.5	954.1	949.4	944.8
w1 = 0.55	958.7	954.2	949.7	945	940.4	935.6
w1 = 0.6	948.9	944.2	939.6	934.8	930	925.2
w1 = 0.71	929.1	924.3	919.5	914.7	909.8	904.9
w1 = 0.81	905.6	900.9	896	891.1	886.2	881.2
w1 = 0.91	876.5	871.1	866.9	862	857.1	852.1
w1 = 0.96	860.5	855.7	850.8	846	841	836.1
w1 = 1	845.2	840.4	835.6	830.7	825.9	820.9
